From US12268694B2, “Combination pharmaceutical agents as RSV inhibitors” (Enanta Pharmaceuticals, Inc., priority 2017, dated 2025) come the findings set out here.

Read-outs that look alike come from different tables or passages of the source.

The subject of this assay is genotype A, "Long" strain RSV. Kind of assay: RSV-A assay: CPE protection in HEp-2 cells, ATPlite readout. The class given is cell-based, human respiratory syncytial virus. From the text: HEp-2 cells, (originally derived from tumors grown in irradiated-cortisonised weanling rats that had been injected with epidermoid carcinoma tissue from a person's larynx, but later found to be indistinguishable from HeLa cells by PCR DNA analysis), were used for the culturing of genotype A, “Long” strain RSV. Flasks were inoculated with RSV and viral stocks were collected once cytopathic effect (CPE) was greater than 90%. Viral stocks in 25% sucrose media were snap frozen using liquid nitrogen to increase viral stability. Viral stock titers were quantified by tissue culture infectious dose 50% (TCID50) using 8,000 cells per well and 3-fold viral dilutions across a 96-well plate, cultured for 4 days. Viral stock titers were also quantified by a plaque forming unit assay, as described elsewhere.
Following extensive parameter testing, the final assay is run as follows: HEp-2 cells are seeded into the inner 60 wells of a 96-well plate at 8,000 cells per well in a volume of 50 μL using Growth Media (DMEM without phenol red, 1% L-Glut, 1% Penn/Strep, 1% nonessential amino acids, 10% heat-inactivated FBS). 2-fold serial dilutions of control and test compounds are added to the wells in duplicate in a total volume of 25 μL. Viral stock is then added to the wells at a multiplicity of infection (MOI) of 0.1 in a volume of 25 μL, bringing the total volume of each well to 100 μL. The MOI is calculated using the PFU/mL, or TCID50 if unavailable. Each 96-well plate has a control column of 6 wells with cells and virus but no compound (negative control, max CPE), a column with cells but no compound or virus (positive control, minimum CPE), and a column with no cells or virus or compound (background plate/reagent control). The control wells with cells but no virus are given an additional 25 μL of growth media containing an equal quantity of sucrose as those wells receiving the viral stock in order to keep consistent in media and volume conditions. The outer wells of the plate are filled with 125 μL of moat media (DMEM, 1% Penn/Strep) to act as a thermal and evaporative moat around the test wells. Following a 5-day incubation period, the plates are read using ATPlite (50 μL added per well), which quantifies the amount of ATP (a measure of cell health) present in each well. Assay plates are read using the Envision luminometer. In parallel, cytotoxicity is examined on an additional 96-well plate treated in an identical manner, but substituting the 25 μL of viral stock for 25 μL of growth media. […] EC50 ranges are as follows: A <0.4 μM; B 0.4-0.8 μM; C >0.8 μM and CC50 ranges are as follows: A >50 μM; B 10-50 μM; C <10 μM.
Background: In ATP-based viability assays light output follows the ATP content of the culture.

The mark [1] stands for this setting: human respiratory syncytial virus, HEp-2, read-out: Human RSV-A (“Long” strain) EC50.

As a reminder, the EC50 is the midpoint of the concentration-response curve. For the molecule `N#Cc1ccc2nccc(-c3nnc(N[C@H]4N=C(c5ccccc5)c5ccccc5NC4=O)o3)c2c1` [Example 435], under setting [1], the 50% effective concentration (EC50) is over 800 nM. Consider `O=C1Nc2ccccc2C(c2ccccc2)=NC1Nc1nnc(-c2ccc(-n3cnnc3)cc2)o1` (stereo not drawn) [Example 233], for which the concentration for a half-maximal effect (EC50) under setting [1] is over 800 nM. On to `Cn1cc(-c2nnc(N[C@H]3N=C(c4ccccc4)c4ccccc4NC3=O)o2)c(N2CCOCC2)n1` [Example 181], for which, under setting [1], the EC50 was under 400 nM. Regarding `O=C1Nc2ccccc2C(c2ccccc2)=N[C@@H]1Nc1nnc(-c2cnc(N3CCOCC3)cn2)o1` [Example 161], the 50% effective concentration (EC50) under setting [1] is over 800 nM. On to `Cc1cc(-n2cncn2)ccc1-c1nnc(NC2N=C(c3ccccc3)c3ccccc3NC2=O)o1` (stereo not drawn) [Example 218], for which, under setting [1], the EC50 is over 800 nM. As for `O=C1Nc2ccccc2C(c2ccccc2)=N[C@@H]1Nc1nnc(-c2ncc(C(F)(F)F)cc2-c2ccncc2)o1` [Example 282], the concentration for a half-maximal effect (EC50) under setting [1] is over 800 nM.

As for `O=C1Nc2ccccc2C(c2ccccc2)=NC1Nc1nnc(-c2cccnc2N2C[C@H]3C[C@@H]2CO3)o1` (stereo partly drawn) [Example 264], the EC50 under setting [1] is over 800 nM. In the case of `O=C1Nc2ccccc2C(c2ccccc2)=NC1Nc1nnc(-c2nccnc2N2CCOCC2)o1` (stereo not drawn) [Example 143], the EC50 under setting [1] was under 400 nM. Turning to `N#Cc1cc(N2CCOCC2)c(-c2nnc(N[C@H]3N=C(c4ccccc4)c4ccccc4NC3=O)o2)s1` [Example 323], the EC50 under setting [1] was under 400 nM. Consider `O=C1Nc2ccccc2C(c2ccccc2)=N[C@@H]1Nc1nnc(-c2nc(C3(C(F)(F)F)CC3)sc2N2CCOCC2)o1` [Example 460], for which, under setting [1], the half-maximal effective concentration (EC50) is under 400 nM.

On to `O=C1Nc2ccccc2C(c2ccccc2)=NC1Nc1nnc(CCC(F)(F)F)o1` (stereo not drawn) [Example 192], for which the EC50 under setting [1] is over 800 nM. With `O=C1Nc2ccccc2C(c2cccc(F)c2)=NC1Nc1nnc(-c2ccc(F)cc2)o1` (stereo not drawn) [Example 380], the 50% effective concentration (EC50) under setting [1] lay in the range of 400 to 800 nM.

`O=C1Nc2ccccc2C(c2ccccc2)=NC1Nc1nnc(C2CCCC2)o1` (stereo not drawn) [Example 197]: the EC50 under setting [1] was over 800 nM. For `N#Cc1ccc(-c2nnc(N[C@H]3N=C(c4ccccc4)c4ccccc4NC3=O)o2)c(N2CCOCC2)c1` [Example 157], the EC50 under setting [1] is under 400 nM.

With `O=C1Nc2ccccc2C(c2ccccc2)=N[C@@H]1Nc1nnc(-c2ncc(C3CCCCC3)cc2N2CCOCC2)o1` [Example 313], under setting [1], the half-maximal effective concentration (EC50) was under 400 nM. Take `COC[C@@H](C)Nc1sc(C(F)(F)F)nc1-c1nnc(N[C@H]2N=C(c3ccccc3)c3ccccc3NC2=O)o1` [Example 451]: under setting [1], the EC50 lay within 400 to 800 nM.

For `COCCOc1ccc(-c2nnc(NC3N=C(c4ccccc4)c4ccccc4NC3=O)o2)cc1` (stereo not drawn) [Example 236], the 50% effective concentration (EC50) under setting [1] was over 800 nM. As for `COCCNc1sc(C)nc1-c1nnc(N[C@H]2N=C(c3ccccc3)c3ccccc3NC2=O)o1` [Example 335], under setting [1], the EC50 was under 400 nM. As to `Cc1nc(-c2nnc(N[C@H]3N=C(c4ccccc4)c4ccccc4NC3=O)o2)cs1` [Example 343], the EC50 under setting [1] was over 800 nM. For `C[C@@H]1CN(c2cc(C#N)cnc2-c2nnc(N[C@H]3N=C(c4ccccc4)c4ccccc4NC3=O)o2)CCO1` [Example 326], the concentration for a half-maximal effect (EC50) under setting [1] fell in the range of 400 to 800 nM. Turning to `COc1cc(-c2nnc(NC3N=C(c4ccccc4)c4ccccc4NC3=O)o2)ccc1-n1cnc(C)c1` (stereo not drawn) [Example 219], under setting [1], the concentration giving a half-maximal response (EC50) was over 800 nM. As to `O=C1Nc2ccccc2C(c2ccccc2)=N[C@@H]1Nc1nnc(-c2ncc(C(F)(F)F)cc2C2CC2)o1` [Example 293], the concentration for a half-maximal effect (EC50) under setting [1] was over 800 nM. Consider `O=C1Nc2ccccc2C(c2ccccc2)=N[C@@H]1Nc1nnc(-c2sc3ncccc3c2N2CCOCC2)o1` [Example 180], for which the EC50 under setting [1] is under 400 nM. For `O=C1Nc2ccccc2C(c2ccccc2)=NC1Nc1nnc(-c2cccnc2N2CCn3ncnc3C2)o1` (stereo not drawn) [Example 270], under setting [1], the concentration giving a half-maximal response (EC50) is over 800 nM.

Regarding `O=C1Nc2ccccc2C(c2ccccc2)=NC1Nc1nnc(-c2cccnc2N2CCC(O)CC2)o1` (stereo not drawn) [Example 255], under setting [1], the half-maximal effective concentration (EC50) is over 800 nM. As to `C[C@@H]1COCCN1c1cc(C(F)(F)F)cnc1-c1nnc(N[C@H]2N=C(c3ccccc3)c3ccccc3NC2=O)o1` [Example 294], the EC50 under setting [1] was under 400 nM. As to `O=C1Nc2ccccc2C(c2ccccc2)=NC1Nc1nnc(-c2ccncc2)[nH]1` (stereo not drawn) [Example 366], the half-maximal effective concentration (EC50) under setting [1] was over 800 nM. Turning to `COc1ccc(-c2nnc(N[C@H]3N=C(c4ccccc4)c4ccccc4NC3=O)o2)c(N2CCOCC2)n1` [Example 295], under setting [1], the EC50 was under 400 nM.

`COC1CN(c2ncccc2-c2nnc(NC3N=C(c4ccccc4)c4ccccc4NC3=O)o2)C1` (stereo not drawn) [Example 258]: the EC50 under setting [1] was over 800 nM. Take `O=C1Nc2ccccc2C(c2ccc(F)cc2)=NC1Nc1nnc(-c2ccc(F)cc2)o1` (stereo not drawn) [Example 382]: the EC50 under setting [1] is over 800 nM. As to `O=C1Nc2ccccc2C(c2ccccc2)=NC1Nc1ncc(-c2ccc(F)cc2)o1` (stereo not drawn) [Example 369], the EC50 under setting [1] was over 800 nM. Turning to `Cc1nc(-c2nnc(N[C@H]3N=C(c4ccccc4)c4ccccc4NC3=O)o2)c(N2CCOCC2)o1` [Example 337], the 50% effective concentration (EC50) under setting [1] is under 400 nM. For `O=C1Nc2ccccc2C(c2ccccc2)=N[C@H]1Nc1nnc(-c2ccc(N3CCOCC3)cc2F)o1` [Example 126b], under setting [1], the half-maximal effective concentration (EC50) was over 800 nM.

For `COCc1ccn2ncc(-c3nnc(N[C@H]4N=C(c5ccccc5)c5ccccc5NC4=O)o3)c2c1` [Example 449], the EC50 under setting [1] was over 800 nM. As to `O=C1Nc2ccccc2C(c2ccccc2)=NC1Nc1ccc(-c2ccc(F)cc2)nn1` (stereo not drawn) [Example 374], under setting [1], the half-maximal effective concentration (EC50) is over 800 nM.

Take `O=C1Nc2ccccc2C(c2ccccc2)=NC1Nc1nnc(-c2ccccc2C2CCOCC2)o1` (stereo not drawn) [Example 354]: under setting [1], the EC50 is over 800 nM. On the same count and under the same terms, with `O=C1Nc2ccccc2C(c2ccccc2)=NC1Nc1nnc(-c2ccc(-n3ccnc3)nc2)o1` (stereo not drawn) [Example 232] the figure was over 800 nM; with `O=C1Nc2ccccc2C(c2ccccc2F)=NC1Nc1nnc(-c2ccc(F)cc2)o1` (stereo not drawn) [Example 379], over 800 nM; with `O=C1Nc2ccccc2C(c2ccccc2)=NC1Nc1nnc(-c2ccc(N3CCOCC3)cc2C(F)(F)F)o1` (stereo not drawn) [Example 147], over 800 nM.

Consider `COCCn1cc(-c2nnc(N[C@H]3N=C(c4ccccc4)c4ccccc4NC3=O)o2)c(N2CCOCC2)n1` [Example 402], for which the EC50 under setting [1] was under 400 nM. The same measure, in the same setting: the figure for `O=C1Nc2ccccc2C(c2ccccc2)=N[C@@H]1Nc1nnc(-c2ncc(C(F)(F)F)cc2N2CCOC3CC32)o1` (mixture of isomers) [Example 466] is under 400 nM. For `O=C1Nc2c(F)cccc2C(c2ccccc2)=N[C@@H]1Nc1nnc(-c2cccnc2N2CCOCC2)o1` (single isomer, unassigned) [Example 357], the EC50 (HEp-2 cells, RSV-A Long strain, ATPlite readout, read-out: Human RSV-A (“Long” strain) EC50) was over 800 nM.

Regarding `O=C1Nc2ccccc2C(c2ccccc2)=NC1Nc1nnc(-c2cccnc2N2CC(F)(F)C2)o1` (stereo not drawn) [Example 259], under setting [1], the EC50 was over 800 nM. For the molecule `Cn1cc(-c2cc(C#N)ccc2-c2nnc(N[C@H]3N=C(c4ccccc4)c4ccccc4NC3=O)o2)ccc1=O` [Example 315], the EC50 under setting [1] is over 800 nM.

For `Cc1noc(C)c1-c1cc(C#N)ccc1-c1nnc(N[C@H]2N=C(c3ccccc3)c3ccccc3NC2=O)o1` [Example 320], the half-maximal effective concentration (EC50) under setting [1] was over 800 nM. Still for that read-out and setting: the figure for `CC(C)c1nnc(NC2N=C(c3ccccc3)c3ccccc3NC2=O)o1` (stereo not drawn) [Example 188] is over 800 nM. With `COCCn1nccc1-c1nnc(N[C@H]2N=C(c3ccccc3)c3ccccc3NC2=O)o1` [Example 310], the EC50 under setting [1] is over 800 nM. In the case of `O=C1Nc2c(F)cccc2C(c2ccccc2)=NC1Nc1nnc(-c2ccc(N3CCOCC3)cc2)o1` (stereo not drawn) [Example 356], under setting [1], the EC50 is 400 to 800 nM.
